Data published in patent US6689883B1, “Substituted pyridines and pyridazines with angiogenesis inhibiting activity” (Bayer Pharmaceuticals Corporation, priority 1999, dated 2004).

Molecular target: T1, cytosolic kinase domain of KDR kinase (Homo sapiens, UniProt P35968)
T1 construct: The cytosolic kinase domain of KDR kinase was expressed as a 6His fusion protein in Sf9 insect cells; 6His; made in house; host or cells: Sf9 insect cells
Assay: KDR Assay (ELISA, poly(Glu4;Tyr1) phosphorylation)
Type: biochemical
Conditions: 3.3 μM ATP, 60 minutes at room temperature
Method: The cytosolic kinase domain of KDR kinase was expressed as a 6His fusion protein in Sf9 insect cells. The KDR kinase domain fusion protein was purified over a Ni++ chelating column. Ninety-six well ELISA plates were coated with 5 μg poly(Glu4;Tyr1) (Sigma Chemical Co., St Louis, Mo.) in 100 μl HEPES buffer (20 mM HEPES, pH 7.5, 150 mM NaCl, 0.02% Thimerosal) at 4° overnight. Before use, the plate was washed with HEPES, NaCl buffer and the plates were blocked with 1% BSA, 0.1% Tween 20 in HEPES, NaCl buffer.
Test compounds were serially diluted in 100% DMSO from 4 mM to 0.12 μM in half-log dilutions. These dilutions were further diluted twenty fold in H2O to obtain compound solutions in 5% DMSO. Following loading of the assay plate with 85 μl of assay buffer (20 mM HEPES, pH 7.5, 100 mM KCl, 10 mM MgCl2, 3 mM MnCl2, 0.05% glycerol, 0.005% Triton X-100, 1 mM-mercaptoethanol, with or without 3.3 μM ATP), 5 μl of the diluted compounds were added to a final assay volume of 100 μl. Final concentrations were between 10 μM, and 0.3 nM in 0.25% DMSO. The assay was initiated by the addition of 10 μl (30 ng) of KDR kinase domain.
The assay was incubated with test compound or vehicle alone with gentle agitation at room temperature for 60 minutes. The wells were washed and phosphotyrosines (PY) were probed with an anti-phosphotyrosine (PY), mAb clone 4G10 (Upstate Biotechnology, Lake Placid, N.Y.). PY/anti-PY complexes were detected with an anti-mouse IgG/HRP conjugate (Amersham International plc, Buckinghamshire, England). Phosphotyrosine was quantitated by incubating with 100 μl 3,3′,5,5′tetramethylbenzidine solution (Kirkegaard and Perry, TMB Microwell 1 Component peroxidase substrate). Color development was arrested by the addition of 100 μl 1% HCl-based stop solution (Kirkegaard and Perry, TMB 1 Component Stop Solution).
Optical densities were determined spectrophotometrically at 450 nm in a 96-well plate reader, SpectraMax 250 (Molecular Devices). Background (no ATP in assay) OD values were subtracted from all ODs and the percent inhibition was calculated according to the equation: [formula]

T1 sequence (P35968 834-1162 limits assumed): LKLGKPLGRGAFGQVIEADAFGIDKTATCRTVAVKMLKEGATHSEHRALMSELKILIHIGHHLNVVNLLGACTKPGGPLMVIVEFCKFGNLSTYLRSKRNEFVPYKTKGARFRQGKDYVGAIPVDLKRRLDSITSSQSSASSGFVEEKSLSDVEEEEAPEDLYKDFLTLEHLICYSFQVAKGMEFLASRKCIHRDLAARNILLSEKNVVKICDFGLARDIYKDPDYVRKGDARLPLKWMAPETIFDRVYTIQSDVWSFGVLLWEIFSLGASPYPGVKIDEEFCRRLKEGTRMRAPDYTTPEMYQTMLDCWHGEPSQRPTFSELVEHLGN

SMILES	IC50 [nM]
c1cc2c(Nc3ccc4nn[nH]c4c3)nnc(Nc3ccc4nn[nH]c4c3)c2s1 [Example 26]	> 1000
COc1cc(Nc2nnc(Nc3ccc4ncsc4c3)c3sccc23)cc(OC)c1OC [Example 80]	> 1000
CN(C)C(=O)c1cc(COc2nnc(Nc3ccc(Cl)cc3)c3ccoc23)ccn1 [Example 81]	> 1000
c1cc2c(Nc3ccc4[nH]ncc4c3)nnc(Nc3ccc4[nH]ncc4c3)c2o1 [Example 30]	> 1000
c1nc2c(Nc3ccc4[nH]ncc4c3)nnc(Nc3ccc4[nH]ncc4c3)c2[nH]1 [Example 32]	> 1000
Cc1ccc(Nc2ncc(Cc3ccncc3)c3ccccc23)cc1F [Example 7, 1-(3-fluoro-4-methylphenylamino)-4-(4-pyridylmethyl)-isoquinoline]	100 to 1000
CNC(=O)c1cc(COc2nnc(Nc3ccc(N(C)C)cc3)c3ccoc23)ccn1 [Example 41]	> 1000
c1nc2c(Nc3ccc4nn[nH]c4c3)nnc(Nc3ccc4nn[nH]c4c3)c2[nH]1 [Example 31]	> 1000
c1nc2c(Nc3ccc4ncsc4c3)nnc(Nc3ccc4ncsc4c3)c2[nH]1 [Example 33]	> 1000
c1ccc2c(Nc3ccc4nn[nH]c4c3)nnc(Nc3ccc4nn[nH]c4c3)c2c1 [Example 94]	> 1000
CNC(=O)c1cc(COc2nnc(Nc3ccc(OC)cc3)c3ccsc23)ccn1 [Example 69]	≤ 100
CNC(=O)c1cc(COc2nnc(Nc3ccc(C)c(OC)c3)c3ccoc23)ccn1 [Example 60]	≤ 100
CNC(=O)c1cc(Cc2cnc(Nc3ccc(Cl)cc3)c3ccccc23)ccn1 [Example 13, 1-(4-chlorophenylamino)-4-(2-methylaminocarbonyl-4-pyridylmethyl)isoquinoline]	≤ 100
CNC(=O)c1cc(COc2nnc(Nc3ccc4c(c3)OCO4)c3ccsc23)ccn1 [Example 74]	≤ 100
CNC(=O)c1cc(COc2nnc(Nc3ccccc3)c3ccoc23)ccn1 [Example 59]	≤ 100
Clc1ccc(Nc2ncc(Cc3ccncc3)c3ccccc23)cc1 [Example 4, 1-(4-chlorophenylamino)-4-(4-pyridylmethyl)isoquinoline]	≤ 100

SMILES	IC50 [nM]
O=C(NC1CC1)c1cc(COc2nnc(Nc3ccc(Cl)cc3)c3ccoc23)ccn1 [Example 82B]	≤ 100
CCNC(=O)c1cc(COc2nnc(Nc3ccc(Cl)cc3)c3ccoc23)ccn1 [Example 82D]	≤ 100
CNC(=O)c1cc(COc2nnc(Nc3cccc(OC)c3)c3ccoc23)ccn1 [Example 51]	≤ 100
CNC(=O)c1cc(COc2nnc(Nc3ccc4c(c3)CCO4)c3ccoc23)ccn1 [Example 65]	≤ 100
CNC(=O)c1cc(COc2nnc(Nc3ccc(C)cc3)c3ccoc23)ccn1 [Example 39]	≤ 100
CNC(=O)c1cc(COc2nnc(Nc3ccc(F)c(F)c3)c3ccoc23)ccn1 [Example 47]	≤ 100
Brc1ccc2c(c1)CCN2c1nnc(Nc2ccc3ncsc3c2)c2ccccc12 [Example 97]	≤ 100
CNC(=O)c1cc(COc2nnc(Nc3ccc(OC(F)(F)F)cc3)c3ccoc23)ccn1 [Example 43]	≤ 100
FC1(F)Oc2ccc(Nc3nnc(Nc4ccc5ncsc5c4)c4ccccc34)cc2O1 [Example 98]	≤ 100
COc1ccc(Nc2nnc(OCc3ccnc(C(N)=O)c3)c3occc23)cc1 [Example 22, 4-(4-methoxyphenylamino)-7-(2-aminocarbonyl4-pyridylmethoxy)furo-[2,3-d]pyridazine]	≤ 100
Brc1ccc2c(c1)CCN2c1nnc(OCc2ccncc2)c2occc12 [Example 19, 4-(5-bromoindolin-1-yl)-7-(4-pyridylmethoxy)furo[2,3-d]pyridazine]	≤ 100
CNC(=O)c1cc(COc2nnc(Nc3ccc(OC(F)(F)F)cc3)c3ccsc23)ccn1 [Example 70]	≤ 100
NC(=O)c1cc(Cc2cnc(Nc3ccc(Cl)cc3)c3ccccc23)ccn1 [Example 12, 1-(4-chlorophenylamino)-4-(2-aminocarbonyl-4-pyridylmethyl)isoquinoline]	≤ 100
Clc1ccc(Nc2nnc(Nc3ccc4ncsc4c3)c3sccc23)cc1 [Example 17, 4-(4-chlorophenylamino)-7-(benzothiazol-6-ylamino)thieno[2,3-d]pyridazine]	≤ 100
c1cc2c(Nc3ccc4nn[nH]c4c3)nnc(Nc3ccc4nn[nH]c4c3)c2o1 [Example 29]	> 1000
CNC(=O)c1cc(COc2nnc(Nc3ccc4c(c3)CCO4)c3ccsc23)ccn1 [Example 66]	≤ 100

Results, then the compound that gave them:

IC50 [nM]	SMILES
≤ 100	Cc1ccc(Nc2nnc(Nc3ccc4ncsc4c3)c3sccc23)c(C)c1 [Example 78]
≤ 100	CNC(=O)c1cc(COc2nnc(Nc3ccc(OC)c(Cl)c3)c3ccoc23)ccn1 [Example 44]
≤ 100	CNC(=O)c1cc(COc2nnc(Nc3cccc(C)c3)c3ccsc23)ccn1 [Example 68]
≤ 100	CNC(=O)c1cc(COc2nnc(Nc3ccc(OC)cc3)c3ccoc23)ccn1 [Example 20, 4-(4-methoxyphenylamino)-7-(2-methylaminocarbonyl-4-pyridylmethoxy)furo-[2,3-d]pyridazine]
≤ 100	CNC(=O)c1cc(COc2nnc(Nc3ccc(C(F)(F)F)cc3)c3ccoc23)ccn1 [Example 42]
≤ 100	CNC(=O)c1cc(COc2nnc(Nc3cc(C)cc(C)c3)c3ccoc23)ccn1 [Example 54]
≤ 100	COc1ccc(Nc2nnc(OCc3ccncc3)c3occc23)cc1 [Example 56]
≤ 100	CNC(=O)c1cc(COc2nnc(Nc3cccc(C)c3)c3ccoc23)ccn1 [Example 40]
≤ 100	CNC(=O)c1cc(COc2nnc(Nc3ccc4c(c3)OCO4)c3ccoc23)ccn1 [Example 52]
≤ 100	CNC(=O)c1cc(COc2nnc(Nc3ccc(F)cc3)c3ccoc23)ccn1 [Example 37]
≤ 100	Clc1ccc(Nc2ncc(Sc3ccncc3)c3ccccc23)cc1 [Example 1, 1-(4-chlorophenylamino)-4-(4-pyridylthio)isoquinoline]
≤ 100	CNC(=O)c1cc(COc2nnc(Nc3ccc(C(F)(F)F)cc3)c3ccsc23)ccn1 [Example 71]
≤ 100	O=C(NCCO)c1cc(COc2nnc(Nc3ccc(Cl)cc3)c3ccoc23)ccn1 [Example 82C]
≤ 100	NC(=O)c1cc(COc2nnc(Nc3ccc(Cl)cc3)c3ccoc23)ccn1 [Example 16, 4-(4-chlorophenylamino)-7-(2-aminocarbonyl-4-pyridylmethoxy)furo-[2,3-d]pyridazine]
≤ 100	CNC(=O)c1cc(COc2nnc(Nc3ccc(Br)cc3)c3ccsc23)ccn1 [Example 72]
≤ 100	CNC(=O)c1cc(COc2nnc(Nc3ccc4c(c3)CCC4)c3ccoc23)ccn1 [Example 49]
≤ 100	CNC(=O)c1cc(COc2nnc(Nc3ccc(Br)cc3)c3ccoc23)ccn1 [Example 38]
≤ 100	c1nc2ccc(Nc3nnc(Nc4ccc5ncsc5c4)c4sccc34)cc2s1 [Example 75]
≤ 100	CNC(=O)c1cc(COc2nnc(Nc3ccc(Cl)c(Cl)c3)c3ccoc23)ccn1 [Example 53]
≤ 100	CNC(=O)c1cc(COc2nnc(Nc3ccc4c(c3)CCC4)c3ccsc23)ccn1 [Example 73]
≤ 100	CNC(=O)c1cc(COc2nnc(Nc3ccc4sc(C)nc4c3)c3ccoc23)ccn1 [Example 62]
≤ 100	CNC(=O)c1cc(COc2nnc(Nc3ccc(O)cc3)c3ccoc23)ccn1 [Example 57]
